Data from patent US11576945B2, “Treatment for ischemic stroke” (CHS Pharma Inc., priority 2018, dated 2023).

Tests used:
[1] = tested on: bilateral carotid artery occlusion (BCAO) mice; assay: Locomotor activity on force-plate actometer in BCAO stroke model; format: in vivo; conditions: 14 mg/kg s.c. daily; 4 days after BCAO; FIG. 22
Experimental: (§1) For the bilateral carotid artery occlusion assay (BCAO) experiments, male Swiss Webster mice (20 weeks of age) were obtained from Charles River laboratory. The mice were allowed access to water only and kept fasting overnight before surgery. Mice were anesthetized with ketamine (100 mg/kg, i.p.) plus xylazine (10 mg/kg, i.p.). For induction of anesthesia, mice were exposed to a gaseous mixture consisting of 30% oxygen, 70% N2O and 0.5% isoflurane using a vaporizer. For maintenance of anesthesia, isoflurane concentration was used to 0.5%. Mice were breathing spontaneously via breathing mask throughout the surgical procedure. A rectal temperature probe was inserted. During surgery, mice were resting on a thermostat-controlled heating pad, ensuring a constant core temperature of 37.0±0.5° C.
While anesthesia was maintained as described above, each mouse was placed on its back, and its tail and paws were fixed to the heating pad using adhesive tape. A sagittal ventral midline incision (˜1 cm length) was performed. Both common carotid arteries (CCAs) were isolated, freed of nerve fibers, and occluded using non-traumatic aneurysm clips. Complete interruption of blood flow was confirmed under an operating microscope. […] The body temperature was monitored and maintained at 37° C.±0.5° C. during the immediate postoperative period until the animals recovered fully from anesthesia. […]

[2] = tested on: bilateral carotid artery occlusion (BCAO) mice; assay: Western blot of brain tissue in BCAO stroke model; format: in vivo
Experimental: as §1
While anesthesia was maintained as described above, each mouse was placed on its back, and its tail and paws were fixed to the heating pad using adhesive tape. A sagittal ventral midline incision (˜1 cm length) was performed. Both common carotid arteries (CCAs) were isolated, freed of nerve fibers, and occluded using non-traumatic aneurysm clips. Complete interruption of blood flow was confirmed under an operating microscope. After 30 min of ischemia, the aneurysm clips were removed from both CCAs. Restoration of blood flow (reoxygenation) was observed directly under the microscope. Sham-operated controls were subjected to the same surgical procedures except that CCAs were not occluded. The body temperature was monitored and maintained at 37° C.±0.5° C. during the immediate postoperative period until the animals recovered fully from anesthesia.
Animals were randomly assigned for sham, control, and experimental groups. Thereafter, in experimental group (carbamathione treated group, N=9), carbamathione (14 mg/kg in 0.3 mL saline 0.9%) was injected subcutaneously 30 min after occlusion and continued daily until the animal was sacrificed. In control groups (vehicle-treated group, N=9), vehicle (0.3 ml saline 0.9%) was injected subcutaneously 30 min after occlusion. Sham-operated group (N=6) received the same surgical procedure without occlusion of common carotid artery. After surgery, animals were allowed to recover from the anesthesia, and given food and water ad libitum. The animals were daily examined for body temperature and weight, and those who had body temperature more than 39° C. after 24 hour were excluded from the experiment.
For the Western blot assays, animals were deeply anesthetized by isoflurane (Phoenix) and decapitated, and then brains were rapidly removed. […] Protein concentrations of each sample solution were determined with a Bradford protein assay, and samples were stored at −80° C. until use. […]

PC-12 cells [3] = assay: Western blot of stress/apoptosis markers in PC-12 cells under hypoxia/reoxygenation; format: cell-based
Experimental: For the Western blot assays, animals were deeply anesthetized by isoflurane (Phoenix) and decapitated, and then brains were rapidly removed. After sacrifice, the while the brain was on ice, the left hemisphere and the right hemisphere (identical parts) were quickly dissected on dry ice and homogenized in Lysis buffer consisting of 50 mM Tris-HCl, 150 mM NaCl, 2 mM EDTA, pH 8.0, 1% Triton-X-100, 1:100 dilution of mammalian protease inhibitors (Sigma-Aldrich, MO, USA) and protease inhibitor for immunoblotting. Protein concentrations of each sample solution were determined with a Bradford protein assay, and samples were stored at −80° C. until use. Protein samples were separated by 12% sodium dodecyl sulfate-polyacrylamide gel electrophoresis and transferred onto nitrocellulose membranes. Western blot was performed using the following primary antibodies overnight: abcam: GRP 78, HSP70, HSP 27, activating transcription factor 4 (ATF4), and X-box-binding protein 1 (XBP-1) (1:500); Cell Signaling: GAPDH (1:3,000), Bax, BCL2 (1:1,000), AKT, phosphorylated AKT (p-AKT); Santa Cruz: CHOP/GADD153); Imgenex: ATF6 (1:1,500). The membranes were washed three times with Tris-buffered saline containing 0.1% Tween-20 (TBS-T) and incubated with secondary antibodies for 1 hour at room temperature. Secondary antibodies used were goat IRDye 800-conjugated anti-rabbit (1:15,000) and IRDye 680 conjugated anti-mouse (1:15,000) antibodies (LI-COR Biosciences, Lincoln, Nebr., USA). Fluorescent signals were detected with a LI-COR Odyssey Fc system and the images were quantified with the provided either Image Studio 2.0 software or image J software.
(§2) In another set of experiments, the effect of carbamathione on cell viability and expression of various biomarkers in PCT-12 cells exposed to hypoxia/reoxygenation was evaluated. Referring to FIG. 9, PC-12 cells were exposed to hypoxia and reoxygenation in the presence or in the absence of 5-100 μM carbamathione. […] Referring to FIGS. 13 and 14, GRP 78, CHOP, Caspase-12, and cleaved Caspase-12 expression induced by hypoxia-reoxygenation were each inhibited by carbamathione.

[4] = tested on: bilateral carotid artery occlusion (BCAO) mice; assay: Brain infarct by TTC staining in BCAO stroke model; format: in vivo; conditions: 14 mg/kg subcutaneously 30 min after occlusion
Experimental: as §1
While anesthesia was maintained as described above, each mouse was placed on its back, and its tail and paws were fixed to the heating pad using adhesive tape. A sagittal ventral midline incision (˜1 cm length) was performed. […] The body temperature was monitored and maintained at 37° C.±0.5° C. during the immediate postoperative period until the animals recovered fully from anesthesia. […]
Mice were euthanized 4 days after surgery. […] To assess lesion volume, TTC-stained slices (2, 4, 6, 8, and 10 mm from the frontal pole) were scanned using a scanner and analyzed by Image-J analysis software. […]

PC-12 cells [5] = assay: ATP assay of cell viability, PC-12 cells under hypoxia/reoxygenation; format: cell-based; conditions: 5-100 μM carbamathione; hypoxia and reoxygenation; without treatment about 47% of control; FIG. 9
Experimental: as §2

[6] = tested on: bilateral carotid artery occlusion (BCAO) mice; assay: Corner test in BCAO stroke model; format: in vivo; conditions: 14 mg/kg s.c. daily; up to 4 days after BCAO; untreated BCAO ~90% to one side; FIG. 21
Experimental: as §1, with “During surgery, mice were resting on a thermostat-controlled heating pad, ensuring a constant core temperature of 37.0±0.5° C.” left out
While anesthesia was maintained as described above, each mouse was placed on its back, and its tail and paws were fixed to the heating pad using adhesive tape. […] The body temperature was monitored and maintained at 37° C.±0.5° C. during the immediate postoperative period until the animals recovered fully from anesthesia.
The Corner test, which determines an animal's asymmetric direction of turning when encountering a corner, is used as an indicator of brain injury. […] Each mouse took part in ten trials, after which we calculated the percentage of turns to each side, recording only those turns involving full rearing along one of the boards. […]

PC-12 cells [7] = conditions: 10 mM glutamate for 24 hours
Experimental: PC-12 cells (purchased from ATCC, Manassas, Va., USA) were cultured in a petri dish for one week prior to use. PC-12 cells were maintained at 37° C./5% CO2 in an incubator, and fed every other day using F12-K medium supplemented with 5% (v/v) fetal bovine serum (FBS), 10% (v/v) heat-inactivated horse serum (HS) and 1% (v/v) penicillin-streptomycin solution. Experiments were performed on undifferentiated cells plated in 96-well plates at a density of approximately 5×10^4 cells/ml for the ATP assay. On first day of use, cells were harvested by first adding 2 mL trypsin and incubated for 15 minutes. 2 mL fresh medium was then used as a wash and cells were spun, and re-suspended. Cell density was determined by cell counting using a hemocytometer and a tissue culture microscope. After cell density was determined, 96-well plates and 6-well plates were plated with 2.5×10^4 cells per well and 5×10^5 cells per well for the adenosine 5′-triphosphate (ATP) assay and Western blot analysis, respectively.
Cell cultures were preincubated with 0.5 μM to 500 μM concentration of carbamathione for one hour. […] For the ATP assay, ATP solution was added to each well, and cells were incubated for 10 min after which time the amount of ATP was quantified through a luciferase reaction. The luminescence intensity was determined using a luminometer with lysates in a standard opaque-walled multi-well plate. […]

[8] = after 4 days, compared to vehicle treated group, FIG. 23
[9] = day 4 post BCAO, compared with vehicle treated group, FIG. 24

Compound: CCN(CC)C(=O)SC[C@H](NC(=O)CC[C@H](N)C(=O)O)C(=O)NCC(=O)O [carbamathione, S—(N,N-diethylcarbamoyl)glutathione]
- locomotor activity [1]: statistically significantly different than BCAO with vehicle group
- CHOP expression in the brains [2, 8]: decreased dramatically
- GRP 78 expression in the brains [2, 8]: decreased dramatically
- Bax expression in the brains [2, 9]: decreased expression
- Bcl2 expression in the brains [2, 9]: significantly increased expression
- CHOP expression induced by hypoxia-reoxygenation (PC-12 cells [3]; FIG. 13): inhibited
- GRP 78 expression induced by hypoxia-reoxygenation (PC-12 cells [3]; FIG. 13): inhibited
- Caspase-12 expression induced by hypoxia-reoxygenation (PC-12 cells [3]; FIG. 14): inhibited
- cleaved Caspase-12 expression induced by hypoxia-reoxygenation (PC-12 cells [3]; FIG. 14): inhibited
- ATF4 expression induced by hypoxia-reoxygenation (PC-12 cells [3]; FIG. 15): inhibited
- ATF6 expression induced by hypoxia-reoxygenation (PC-12 cells [3]; FIG. 16): inhibited
- XBP1 expression induced by hypoxia-reoxygenation (PC-12 cells [3]; FIG. 17): inhibited
- Bax expression (upregulation induced by hypoxia/reoxygenation) (PC-12 cells [3]; FIG. 18): decreased the upregulation
- Bcl2 expression (downregulation induced by hypoxia/reoxygenation) (PC-12 cells [3]; FIG. 18): increased the downregulation
- decrease in the Bcl2:Bax ratio induced by hypoxia/reoxygenation (PC-12 cells [3]; FIG. 18): inhibited
- cleaved Caspase-3 expression (upregulation induced by hypoxia/reoxygenation) (PC-12 cells [3]; FIG. 19): decreased the upregulation
- AKT expression (PC-12 cells [3]; hypoxia-reoxygenation, FIG. 12): no changes
- Hsp 27 expression (PC-12 cells [3]; hypoxia-reoxygenation, compared to hypoxia-reoxygenation alone, FIG. 10): greater over-expression
- Hsp 70 expression (PC-12 cells [3]; hypoxia-reoxygenation, compared to hypoxia-reoxygenation alone, FIG. 11): greater over-expression
- P-AKT expression (PC-12 cells [3]; hypoxia-reoxygenation, compared to hypoxia-reoxygenation alone, FIG. 12): up-regulated
- infarct size (TTC staining) ([4]; daily, 4 days after surgery, 2, 4, 6, 8, 10 mm from frontal pole, FIG. 20): noticeably reduced
- volume of the lesion ([4]; sections 2, 4, 6, 8 and 10 mm, 30 min transient BCAO, FIG. 20c): markedly reduced
- cell viability (ATP levels) (PC-12 cells [5]): dramatically increased the cell viability
- asymmetric turning in Corner test [6]: not significant differently from that seen in the sham-operated mice

Compound: N[C@@H](CCC(=O)O)C(=O)O [glutamate]
- survival of PC-12 cells (ATP assay) (PC-12 cells [7]): about 45%
